Data published in US20250197376A1, “PYRAZINE AMIDE DERIVATIVES” (Novartis AG, priority 2022, published 2025).

System: 3D7 P. falciparum strain
Assay: P. falciparum 3D7 parasite proliferation assay (SYBR Green)
Assay type: cell-based
Details: Plasmodium falciparum, Erythrocyte; 3D7 P. falciparum infected human erythrocytes, 72 hours, SYBR Green fluorescence; read-out: Pf3D7 Activity
Procedure: The following assay illustrates the invention without in any way limiting the scope of the invention. This parasite proliferation assay measures the increase in parasite DNA content using a DNA intercalating dye, SYBR Green®. 3D7 P. falciparum strain is grown in complete culturing media until parasitemia reaches 3% to 8% with O+ human erythrocytes. 20 μl of screening media is dispensed into 384 well assay plates. 50 nl of compounds of the invention (in DMSO), including antimalarial controls (mefloquine, pyrimethamine and artemisinin), are then transferred into the assay plates, as well as DMSO alone to serve as a negative control for inhibition. Then 30 μl of a suspension of a 3D7 P. falciparum infected erythrocytes in screening media is dispensed into the assay plates such that the final hematocrit is 2.5% with a final parasitemia of 0.3%. The plates are placed in a 37° C. incubator for 72 hours in a low oxygen environment containing 93% N2, 4% CO2, and 3% O2 gas mixture. 10 μl of lysis buffer (saponin, triton-X, EDTA) containing a 10× solution of SYBR Green […] in RPMI media is dispensed into the plates. The plates are lidded and kept at room temperature overnight for the lysis of the infected red blood cells. The fluorescence intensity is measured (excitation […], emission 530 nm) using the Envision™ system (Perkin Elmer). The percentage inhibition of 50%, EC50, is calculated for each compound.

SMILES	EC50 [nM]
Cc1c(-c2cncc(C(=O)N[C@@H]3CCCC[C@@H]3N)n2)[nH]c2ccccc12 (racemic) [Example 98, (rac)-N-((1r,2s)-2-aminocyclohexyl)-6-(3-methyl-1H-indol-2-yl)pyrazine-2-carboxamide]	> 100
Cc1c(-c2cncc(C(=O)N[C@H]3COC[C@H]3N)n2)[nH]c2ccccc12 (racemic) [Example 99, (rac)-N-((3r,4s)-4-aminotetrahydrofuran-3-yl)-6-(3-methyl-1H-indol-2-yl)pyrazine-2-carboxamide]	> 100
Cc1c(-c2cncc(C(=O)N[C@@H]3CCCC[C@H]3N)n2)[nH]c2ccccc12 (racemic) [Example 101, (rac)-N-((1r,2r)-2-aminocyclohexyl)-6-(3-methyl-1H-indol-2-yl)pyrazine-2-carboxamide]	> 100
Cc1c(-c2cncc(C(=O)NCC(C)(C)N)n2)[nH]c2cc(Cl)c(F)cc12 [Example 1, N-(2-amino-2-methylpropyl)-6-(6-chloro-5-fluoro-3-methyl-1H-indol-2-yl)pyrazine-2-carboxamide]	< 10
CC(C)(N)CNC(=O)c1cncc(-c2cc3cc(OC(F)(F)F)ccc3[nH]2)n1 [Example 2, N-(2-Amino-2-methylpropyl)-6-(5-(trifluoromethoxy)-1H-indol-2-yl)pyrazine-2-carboxamide]	10 to 100
Cc1c(-c2cncc(C(=O)NCC(C)(C)N)n2)[nH]c2ccc(S(F)(F)(F)(F)F)cc12 [Example 3, N-(2-amino-2-methylpropyl)-6-(3-methyl-5-(pentafluoro-λ^6-sulfaneyl)-1H-indol-2-yl)pyrazine-2-carboxamide]	< 10
Cc1c(-c2cncc(C(=O)NCC(C)(C)N)n2)[nH]c2c(F)c(Cl)ccc12 [Example 4, N-(2-amino-2-methylpropyl)-6-(6-chloro-7-fluoro-3-methyl-1H-indol-2-yl)pyrazine-2-carboxamide]	< 10
Cc1c(-c2cncc(C(=O)NCC(C)(C)N)n2)[nH]c2ccc(OC(F)(F)F)cc12 [Example 5, N-(2-amino-2-methylpropyl)-6-(3-methyl-5-(trifluoromethoxy)-1H-indol-2-yl)pyrazine-2-carboxamide]	< 10
Cc1c(-c2cncc(C(=O)NCC(C)(C)N)n2)[nH]c2c(F)cc(Cl)cc12 [Example 6, N-(2-amino-2-methylpropyl)-6-(5-chloro-7-fluoro-3-methyl-1H-indol-2-yl)pyrazine-2-carboxamide]	< 10
Cc1c(-c2cncc(C(=O)NCC(C)(C)N)n2)[nH]c2cc(Cl)ccc12 [Example 7, N-(2-amino-2-methylpropyl)-6-(6-chloro-3-methyl-1H-indol-2-yl)pyrazine-2-carboxamide]	< 10
Cc1c(-c2cncc(C(=O)NCC(C)(C)N)n2)[nH]c2cc(OC(F)(F)F)ccc12 [Example 8, N-(2-amino-2-methylpropyl)-6-(3-methyl-6-(trifluoromethoxy)-1H-indol-2-yl)pyrazine-2-carboxamide]	< 10
Cc1c(-c2cncc(C(=O)NCC(C)(C)N)n2)[nH]c2cc(S(F)(F)(F)(F)F)ccc12 [Example 9, N-(2-amino-2-methylpropyl)-6-(3-methyl-6-(pentafluoro-[…]^6-sulfaneyl)-1H-indol-2-yl)pyrazine-2-carboxamide]	< 10
Cc1c(-c2cncc(C(=O)NCC(C)(C)N)n2)[nH]c2cc(F)c(Cl)cc12 [Example 10, N-(2-amino-2-methylpropyl)-6-(5-chloro-6-fluoro-3-methyl-1H-indol-2-yl)pyrazine-2-carboxamide]	< 10
CC(C)(N)CNC(=O)c1cncc(-c2cc3ccc(Cl)c(F)c3[nH]2)n1 [Example 11, N-(2-amino-2-methylpropyl)-6-(6-chloro-7-fluoro-1H-indol-2-yl)pyrazine-2-carboxamide]	10 to 100
Cc1c(-c2cncc(C(=O)NCC(C)(C)N)n2)[nH]c2ccc(Cl)cc12 [Example 12, N-(2-amino-2-methylpropyl)-6-(5-chloro-3-methyl-1H-indol-2-yl)pyrazine-2-carboxamide]	10 to 100
CC(C)(N)CNC(=O)c1cncc(-c2cc3cc(Cl)cc(F)c3[nH]2)n1 [Example 13, N-(2-amino-2-methylpropyl)-6-(5-chloro-7-fluoro-1H-indol-2-yl)pyrazine-2-carboxamide]	10 to 100
CC(C)(N)CNC(=O)c1cncc(-c2cc3cc(F)c(Cl)cc3[nH]2)n1 [Example 14, N-(2-amino-2-methylpropyl)-6-(6-chloro-5-fluoro-1H-indol-2-yl)pyrazine-2-carboxamide]	10 to 100
Cc1ccc2[nH]c(-c3cncc(C(=O)NCC(C)(C)N)n3)c(C)c2c1 [Example 15, N-(2-amino-2-methylpropyl)-6-(3,5-dimethyl-1H-indol-2-yl)pyrazine-2-carboxamide]	10 to 100
CC(C)c1c(-c2cncc(C(=O)NCC(C)(C)N)n2)[nH]c2ccc(OC(F)(F)F)cc12 [Example 16, N-(2-amino-2-methylpropyl)-6-(3-isopropyl-5-(trifluoromethoxy)-1H-indol-2-yl)pyrazine-2-carboxamide]	10 to 100

SMILES	EC50 [nM]
CC(C)(N)CNC(=O)c1cncc(-c2cc3cc(Cl)c(F)cc3[nH]2)n1 [Example 17, N-(2-amino-2-methylpropyl)-6-(5-chloro-6-fluoro-1H-indol-2-yl)pyrazine-2-carboxamide]	10 to 100
CC(C)(N)CNC(=O)c1cncc(-c2cc3cc(C(F)(F)F)ccc3[nH]2)n1 [Example 18, N-(2-amino-2-methylpropyl)-6-(5-(trifluoromethyl)-1H-indol-2-yl)pyrazine-2-carboxamide]	10 to 100
CC(C)(N)CNC(=O)c1cncc(-c2cc3cc(Cl)ccc3[nH]2)n1 [Example 19, N-(2-amino-2-methylpropyl)-6-(5-chloro-1H-indol-2-yl)pyrazine-2-carboxamide]	10 to 100
CC(C)(N)CNC(=O)c1cncc(-c2cc3cc(F)c(F)cc3[nH]2)n1 [Example 20, N-(2-amino-2-methylpropyl)-6-(5,6-difluoro-1H-indol-2-yl)pyrazine-2-carboxamide]	10 to 100
CC(C)(N)CNC(=O)c1cncc(-c2cc3ccc(F)cc3[nH]2)n1 [Example 21, N-(2-amino-2-methylpropyl)-6-(6-fluoro-1H-indol-2-yl)pyrazine-2-carboxamide]	10 to 100
CC(C)(N)CNC(=O)c1cncc(-c2cc3cc(OCc4ccccc4)ccc3[nH]2)n1 [Example 22, N-(2-amino-2-methylpropyl)-6-(5-(benzyloxy)-1H-indol-2-yl)pyrazine-2-carboxamide]	10 to 100
Cc1ccc2cc(-c3cncc(C(=O)NCC(C)(C)N)n3)[nH]c2c1 [Example 23, N-(2-amino-2-methylpropyl)-6-(6-methyl-1H-indol-2-yl)pyrazine-2-carboxamide]	10 to 100
CC(C)(N)CNC(=O)c1cncc(-c2cc3cc(F)cc(F)c3[nH]2)n1 [Example 24, N-(2-amino-2-methylpropyl)-6-(5,7-difluoro-1H-indol-2-yl)pyrazine-2-carboxamide]	10 to 100
CC(C)(N)CNC(=O)c1cncc(-c2cc3cccc(F)c3[nH]2)n1 [Example 25, N-(2-amino-2-methylpropyl)-6-(7-fluoro-1H-indol-2-yl)pyrazine-2-carboxamide]	10 to 100
Cc1ccc2[nH]c(-c3cncc(C(=O)NCC(C)(C)N)n3)cc2c1 [Example 26, N-(2-amino-2-methylpropyl)-6-(5-methyl-1H-indol-2-yl)pyrazine-2-carboxamide]	10 to 100
CC(C)(N)CNC(=O)c1cncc(-c2cc3cc(F)ccc3[nH]2)n1 [Example 27, N-(2-amino-2-methylpropyl)-6-(5-fluoro-1H-indol-2-yl)pyrazine-2-carboxamide]	10 to 100
CC(C)(N)CNC(=O)c1cncc(-c2cc3cccc(Cl)c3[nH]2)n1 [Example 28, N-(2-amino-2-methylpropyl)-6-(7-chloro-1H-indol-2-yl)pyrazine-2-carboxamide]	10 to 100
COC(=O)c1ccc2cc(-c3cncc(C(=O)NCC(C)(C)N)n3)[nH]c2c1 [Example 29, Methyl 2-(6-((2-amino-2-methylpropyl)carbamoyl)pyrazin-2-yl)-1H-indole-6-carboxylate]	10 to 100
COc1cccc2[nH]c(-c3cncc(C(=O)NCC(C)(C)N)n3)cc12 [Example 30, N-(2-amino-2-methylpropyl)-6-(4-methoxy-1H-indol-2-yl)pyrazine-2-carboxamide]	> 100
COc1ccc2cc(-c3cncc(C(=O)NCC(C)(C)N)n3)[nH]c2c1 [Example 31, N-(2-amino-2-methylpropyl)-6-(6-methoxy-1H-indol-2-yl)pyrazine-2-carboxamide]	> 100
COc1ccc2[nH]c(-c3cncc(C(=O)NCC(C)(C)N)n3)cc2c1 [Example 32, N-(2-amino-2-methylpropyl)-6-(5-methoxy-1H-indol-2-yl)pyrazine-2-carboxamide]	> 100
CC(C)(N)CNC(=O)c1cncc(-c2cc3cc(F)c(Cl)nc3[nH]2)n1 [Example 33, N-(2-amino-2-methylpropyl)-6-(6-chloro-5-fluoro-1H-pyrrolo[2,3-b]pyridin-2-yl)pyrazine-2-carboxamide]	> 100
CC(C)(N)CNC(=O)c1cncc(-c2cc3ccc(C#N)cc3[nH]2)n1 [Example 34, N-(2-amino-2-methylpropyl)-6-(6-cyano-1H-indol-2-yl)pyrazine-2-carboxamide]	> 100
